According to US10808008B2, “Aromatic-cationic peptides and uses of same” (Cornell University, priority 2012, dated 2020):
“Also recorded” adds a separate entry of the source. Read-outs that look alike come from different tables or passages of the source.

How the values were obtained:
[1] = Fluorescence spectroscopy of labelled peptide with other phospholipids; format: binding; settings: 1 μM peptide
Experimental: 1-palmitoyl-2-oleoyl-sn-glycero-3-phosphocholine (POPC), 1-palmitoyl-2-oleoyl-sn-glycero-3-phosphate (POPA), 1-palmitoyl-2-oleoyl-sn-glycero-3-phospho-L-serine (POPS), 1-palmitoyl-2-oleoyl-sn-glycero-3-phosphoethanolamine (PE), and 1,2-dipalmitoyl-sn-glycero-3-phospho-(1′-rac-glycerol) (DPPG) were obtained from Avanti Polar Lipids Inc (Alabaster, Ala.).
Changes in the emission intensity of the [atn]SS-02 and the [ald]SS-02 were measured using a Hitachi F-4500 fluorescence spectrophotometer. The different solvents used to dissolve the various phospholipids (chloroform, methanol and ethanol) had negligible effect on the fluorescence spectrum of [atn]SS-02 and [ald]SS-02. All experiments were done in low ionic solution (deionized water) to optimize electrostatic interactions of peptides with phospholipids.

[2] = system: isolated rat kidney mitochondria / cytochrome c-deficient mitoplasts; test: Fluorescence quenching by isolated mitochondria or cytochrome c-deficient mitoplasts; format: binding
Experimental: The quenching by cytochrome c was not displaced by sequential additions of bovine serum albumin (FIG. 12C, A+arrows) (500 μg/ml). […] Accordingly, aromatic-cationic peptides of the present disclosure are useful for the prevention or treatment of diseases or disorders characterized by dysregulation of cytochrome c.
Uptake of [atn]SS-02 by isolated mitochondria or cytochrome c-deficient mitoplasts was determined by fluorescence quenching of [atn]SS-02 (λex/λem=320/420) upon addition of a fresh mitochondrial or mitoplast suspension (0.35 mg).
Mitochondria were isolated from the kidney of male Sprague-Dawley rats (Charles River Laboratories International, Inc., Wilmington, Mass.) weighing 250 to 300 g. Excised kidneys were cut and incubated in wash buffer (200 mM mannitol, 10 mM sucrose, 5 mM HEPES, 1 g/L fatty-acid-free BSA, to pH to 7.4 with KOH) on ice for 10 minutes. Samples were washed 2 times in isolation buffer (wash buffer with 1 mM EGTA), homogenized for 3 minutes, and then centrifuged in 20 ml of isolation buffer at 900×g for 10 minutes. The white fatty acid layer was then removed and the […]. The supernatant was centrifuged at 11,000×g for 10 minutes, and the pellet was re-suspended in 800 μl of wash buffer and kept on ice for further analysis.
Mitoplasts deficient in cytochrome c were prepared by first treating fresh or once-frozen mitochondria with 3.3 mg/ml digitonin for 45 minutes on ice, in order to remove the mitochondrial outer membrane. To remove electrostatically-bound cytochrome c, […] pH 7.4 was then added to the mix and centrifuged at 19,000×g for 30 minutes. The pellet was collected and re-dissolved in wash buffer and stored on ice until use. Only mitoplast preparations that responded to the addition of 200 nM exogenous cytochrome c by 4-5 fold increase in mitochondrial respiration (oxygen consumption) were used in the study. […]

cytochrome c [3] = target: T1, cytochrome c (Equus caballus, UniProt P00004); test: Circular dichroism of Soret band of cytochrome c; format: biochemical
Experimental: Circular dichroism (Olis spectropolarimeter, DSM20) was carried out to monitor Soret band (negative peak at 415 nm), as a probe for the π-π* heme environment in cytochrome c (FIG. 4). […] The increase in π-π* interaction around the heme would enhance electron tunneling which would be favorable for electron diffusion. Accordingly, aromatic-cationic peptides of the present disclosure are useful for the prevention or treatment of diseases or disorders characterized by dysregulation of cytochrome c, and to induce novel π-π interactions around cytochrome c heme.

[4] = system: cytochrome c-depleted mitoplasts; test: Respiration in cytochrome c-depleted mitoplasts; format: biochemical, rat
Experimental: Rates of respiration were measured in the presence of 500 μM Succinate with or without 100 μM SS-31. The experiment was carried out in triplicate, with n=3. […] Accordingly, aromatic-cationic peptides of the present disclosure are useful for the prevention or treatment of diseases or disorders characterized by dysregulation of cytochrome c.
A model of cytochrome c tightly bound to mitochondrial cardiolipin was used to investigate interaction of SS-31 with cytochrome c-CL complex in mitochondria. After removal of outer membrane with digitonin, mitoplasts were washed with 120 mM KCl to remove all free and electrostatically associated cytochrome c, leaving only cytochrome c tightly bound to CL.

cytochrome c [5] = target: T1, cytochrome c; test: Cyclic voltammetry of cytochrome c; format: biochemical
cytochrome c [6] = target: T1, cytochrome c; test: Cytochrome c reduction kinetics (absorption spectroscopy); format: biochemical
Experimental: Increasing amounts of aromatic-cationic peptides were added to a solution of oxidized cytochrome c. The formation of reduced cytochrome c was monitored by absorbance at […]. The rate of cytochrome c reduction was determined by non-linear analysis (Prizm software).
Time-resolved UV-Visible absorption spectroscopy was used to study the electron transport process of cytochrome c in the presence of peptides. Reduced cytochrome c was monitored by absorbance at a broad-band spectral range (200-1100 nm). The absorption changes were recorded with a UV/Visible spectrophotometer (Ultrospec 3300 pro, GE) in quartz cells with path lengths of 1 or 2 mm. N-acetylcysteine (NAC) and glutathione were used as electron donors to reduce oxidized cytochrome c. The rate constant of cytochrome c reduction was estimated by adding various concentrations of peptides. The dose dependence of the peptides was correlated to the cytochrome c reduction kinetics.
Absorption spectroscopy (UltroSpec 3300 Pro; 220-1100 nm) was used to determine if SS-31 modulates cytochrome c reduction (FIG. 1). Reduction of cytochrome c with glutathione is associated with multiple shifts in the Q band (450-650 nm), with a prominent shift at 550 nm. […] Accordingly, the aromatic-cationic peptides of the present disclosure are useful for altering the structure and oxidation state of cytochrome c, and are useful for the prevention or treatment of diseases or disorders characterized by dysregulation of cytochrome c.
Reduction of cytochrome c was monitored by increase in absorbance at 550 nm. […] Similar results were obtained using N-acetylcysteine (NAC) as a reducing agent (not shown). […] Accordingly, aromatic-cationic peptides of the present disclosure are useful for the prevention or treatment of diseases or disorders characterized by dysregulation of cytochrome c and are useful for facilitating cytochrome c reduction.

T1 sequence (P00004 2-105 limits assumed): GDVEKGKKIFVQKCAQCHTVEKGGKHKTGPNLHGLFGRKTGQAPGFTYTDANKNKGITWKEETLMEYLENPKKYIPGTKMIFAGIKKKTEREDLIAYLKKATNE

Substance: 2′,6′-Dmt-D-Arg-Ald-Lys-NH2 [SS-36]
- interaction with POPC, POPE and neutral cholesterol [1]: No interaction

Substance: 2′,6′-Dmt-D-Arg-Phe-(atn)Dap-NH2 [SS-19]
- quenching of fluorescence by cytochrome c-depleted/deficient mitoplasts versus mitochondria [2]: significantly reduced
- quenching of fluorescence by isolated mitochondria ([2]; 10 μM peptide, 0.2 mg mitochondria): quenched by sequential addition of 0.2 mg isolated rat renal kidney mitochondria
- quenching of fluorescence by cytochrome c-depleted/deficient mitoplasts versus mitochondria ([2]; listed as [atn]SS-02): appreciable in cytochrome c-deficient mitoplasts but was less than in intact mitochondria

Substance: D-Arg-2′,6′-Dmt-Lys-Phe-NH2 [SS-31]
- position of Soret band negative peak after peptide (415 nm before) (cytochrome c [3]): 440 nm
- respiration (O2 consumption) in cytochrome c-depleted mitoplasts ([4]; 500 μM succinate, 100 μM SS-31): Enhances Respiration in Cytochrome c-Depleted Mitoplasts
- complex II respiration in mitoplasts with tightly bound cytochrome c ([4]; mitoplasts washed with 120 mM KCl): enhances complex II respiration in mitoplasts with cytochrome c tightly bound to inner mitochondrial membrane in a dose-dependent manner
- reduction/oxidation potentials of cytochrome c (cytochrome c [5]): does not alter reduction/oxidation potentials
- current of cytochrome c reduction and oxidation processes (cytochrome c [5]; Au working electrode, Ag/AgCl reference): increased current for both reduction and oxidation processes of cytochrome c
- increase of current (electron diffusion rate) (cytochrome c [5]; cytochrome c:SS-31=1:2, TBE buffer): ~200%
- rate of NAC-induced cytochrome c reduction (cytochrome c [6]; N-acetylcysteine (NAC) as reducing agent): dose-dependently increased the rate of NAC-induced cytochrome c reduction
- rate (kinetics) of cytochrome c reduction (cytochrome c [6]; glutathione (GSH) as reducing agent, absorbance at 550 nm): increased the rate of cytochrome c reduction; also recorded: accelerate the kinetics of cytochrome c reduction
- reduction of cytochrome c by peptide alone (cytochrome c [6]; peptide alone at 100 μM): did not reduce cytochrome c
- spectral weight shift in Q band of cytochrome c (cytochrome c [6]; reduction of cytochrome c with glutathione): significant spectral weight shift at 550 nm
